# Assay results: ChEMBL document CHEMBL1201862, “PubChem BioAssay data set” (2004)
# The source made the active and inactive calls.
# How the values were obtained:
# [1] = intracellular Trypanosoma cruzi inhibitors in host cells – cell-based, plate reader, cherry-pick samples, set 3, dose response (AID 651818); type: functional;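 further: compounds incubated with infected cells for about four days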
# [2] = P. falciparum Dd2 growth inhibitors, dose response, SYBR Green, cherry-picked samples (AID 1159567); type: functional, cell-based
# [3] = Luminescence Cell-Based Dose Response HTS to Identify Activators of Luciferase Translation or Activity in H4 […] Cells. [Related pubchem assays: 1829 (Project Summary), 1814 (Primary HTS)]; type: functional
# [4] = Luminescence Cell-Based Dose Confirmation HTS to Identify Activators of 5'UTR Stem-Loop Driven Alpha-Synuclein mRNA Translation in H4 Neuroglioblastoma Cells. [Related pubchem assays: 1829 (Project Summary), 1814 (Primary HTS)]; type: functional
# H4 = test: Luminescence Cell-Based Dose Response HTS to Identify Activators of 5'UTR Stem-Loop Driven Prion Protein mRNA Translation in H4 Neuroglioblastoma Cells. [Related pubchem assays: 1829 (Project Summary), 1814 (Primary HTS)]; type: functional; settings: Homo sapiens
# Streptococcus = test: Group A Streptococcus viability loss, dose response, counter-screen for streptokinase expression inhibitor project, luminescence, BacTiterGlo (AID 1915); type: functional, organism-based;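 further: potency for reduction of bacterial viability or growth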
# Streptokinase A = target: T1, Streptokinase A (Streptococcus pyogenes serotype M1, UniProt P10520); test: S. pyogenes streptokinase expression inhibitors, potency, dose response, plasminogen activation absorbance, OD405 (AID 1914); type: functional, Streptococcus pyogenes M1 GAS;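 further: secreted streptokinase activity via plasminogen activation per viability signal from cell pellet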
# T1 sequence (P10520 whole entry): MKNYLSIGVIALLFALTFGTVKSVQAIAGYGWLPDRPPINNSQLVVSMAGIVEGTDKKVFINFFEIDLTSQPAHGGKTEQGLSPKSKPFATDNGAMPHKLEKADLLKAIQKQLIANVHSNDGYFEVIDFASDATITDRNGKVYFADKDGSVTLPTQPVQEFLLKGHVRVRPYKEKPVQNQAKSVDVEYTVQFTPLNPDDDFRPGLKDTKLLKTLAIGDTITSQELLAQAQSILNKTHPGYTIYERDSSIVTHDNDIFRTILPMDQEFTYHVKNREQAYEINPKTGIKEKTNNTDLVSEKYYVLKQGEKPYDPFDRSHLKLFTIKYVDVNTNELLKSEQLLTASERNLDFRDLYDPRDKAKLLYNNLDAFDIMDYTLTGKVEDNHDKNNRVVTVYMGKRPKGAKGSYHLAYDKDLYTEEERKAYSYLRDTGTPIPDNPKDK
# [5] = NIH-3T3 fibroblast cytotoxicity, dose response, cytotoxicity control, cell-based, fluorescence, Alamar Blue, secondary assay (AID 2327); type: functional;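 further: NIH-3T3 mouse fibroblasts cultured with fluconazole at 8 µg/mL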
# [6] = C. albicans growth with fluconazole, confirmation, fluorescence, retest (AID 2467); type: functional, cell-based
# [7] = tested on: Streptococcus sp. 'group A'; test: growth inhibition of control SK(-) GAS strain, dose response, counter-screen for streptokinase expression inhibitor project, luminescence, kanamycin, BacTiterGlo, confirmation (AID 1900); type: functional, organism-based
smiles,measurement,setting,value
C[C@@H]1CCCCO[C@H](CN(C)Cc2ccc(Cl)c(Cl)c2)[C@@H](C)CN([C@H](C)CO)C(=O)c2cc(NC(=O)CCCCCC(=O)Nc3ccccc3N)ccc2O1,AC50,[1],2.65 µM (active)
C[C@H]1CN([C@@H](C)CO)C(=O)Cc2cc(N(C)C)ccc2O[C@@H]1CN(C)Cc1ccc(Cl)c(Cl)c1,AC50,[1],2.09 µM (active)
Cc1ccc(S(=O)(=O)Nc2ccc3c(c2)C(=O)N([C@@H](C)CO)C[C@H](C)[C@@H](CN(C)Cc2ccc(-c4ccccc4)cc2)O3)cc1,AC50,[1],3.88 µM (active)
C[C@@H]1CN([C@@H](C)CO)C(=O)c2cccc(NC(=O)Nc3ccc4c(c3)OCO4)c2O[C@H]1CN(C)Cc1ccc(Cl)c(Cl)c1,AC50,[1],2.22 µM (active)
C[C@H]1CN([C@@H](C)CO)C(=O)Cc2cc(NC(=O)Nc3ccc4c(c3)OCO4)ccc2O[C@H]1CN(C)Cc1ccc(-c2ccccc2)cc1,AC50,[1],6.07 µM (active)
C[C@@H]1CCCCO[C@H](CN(C)Cc2ccc(C(=O)Nc3ccccc3N)cc2)[C@@H](C)CN([C@H](C)CO)C(=O)c2cc(NS(=O)(=O)c3ccc(Cl)cc3)ccc2O1,AC50,[1],1.11 µM (active)
C[C@@H]1CCCCO[C@@H](CN(C)CC2CCCCC2)[C@@H](C)CN([C@H](C)CO)C(=O)c2cc(NC(=O)Nc3ccc(F)cc3)ccc2O1,AC50,[1],1.64 µM (active)
CC(C)NC(=O)N(C)C[C@H]1Oc2c(NC(=O)c3cnccn3)cccc2C(=O)N([C@H](C)CO)C[C@H]1C,AC50,[1],3.41 µM (active)
C[C@@H]1CCCCO[C@H](CN(C)C(=O)Nc2ccc(C(F)(F)F)cc2)[C@@H](C)CN([C@H](C)CO)C(=O)c2cc(NC(=O)NC3CCCCC3)ccc2O1,AC50,[1],2.45 µM (active)
C[C@@H]1CN([C@@H](C)CO)C(=O)c2cccc(NC(=O)CCCCCC(=O)Nc3ccccc3N)c2O[C@H]1CN(C)Cc1ccc(Oc2ccccc2)cc1,AC50,[1],2.21 µM (active)
C[C@H](CO)N1C[C@H](C)[C@@H](CN(C)Cc2ccc3c(c2)OCO3)Oc2c(NC(=O)CCCCCC(=O)Nc3ccccc3N)cccc2C1=O,AC50,[1],2.21 µM (active)
CC(C)C#Cc1ccc([C@@H]2[C@H](CO)N3CCCCN(C(=O)c4ccc5c(c4)OCO5)C[C@@H]23)cc1,AC50,[2],5.18 µM (active)
C[C@@H]1CN([C@H](C)CO)C(=O)c2cccc(NS(=O)(=O)c3cccs3)c2O[C@H]1CN(C)Cc1ccc(C(F)(F)F)cc1,AC50,[2],7.6 µM (active)
Oc1oc(-c2ccccc2Br)nc1/C=N/c1ccccn1,EC50,[3],13 µM (active)
same,EC50,[4],59.1 µM (active)
same,EC50,H4,> 120 µM (not active)
CC1=C/C(=N\NC(=S)NCCc2ccccc2)CC(C)(C)C1,EC50,Streptococcus,> 150 µM (not active)
same,EC50,[3],14.2 µM (active)
same,EC50,Streptokinase A,64 µM (active)
same,EC50,[4],12.1 µM (active)
same,EC50,[5],> 150 µM (inactive)
same,EC50,H4,> 120 µM (not active)
same,EC50,[6],> 38 µM (not active)
same,EC50,[7],11.4 µM (active)
Cc1nn(-c2ccccc2)c(Cl)c1/C=N/NC(=O)c1ccc(NS(=O)(=O)c2cccs2)cc1,EC50,Streptococcus,5.04 µM (active)
same,EC50,[3],7.45 µM (active)
same,EC50,[4],17.3 µM (active)
same,EC50,H4,9.52 µM (active)
same,EC50,[7],2.1 µM (active)
COc1ccccc1-c1cccc(-c2nc(C(=O)Nc3nccs3)cc3c2[C@H](CCO)N(C(=O)CC2CC2)C3)c1,AC50,[2],4.27 µM (active)
CC(C)(C)[S@+]([O-])N1Cc2cc(C(=O)NCCN3CCCC3)nc(-c3cccc(-c4ccc(C#N)cc4)c3)c2[C@@H]1CCO,AC50,[2],6.6 µM (active)
CO[C@@H]1CN(C)C(=O)c2ccc(NC(=O)NC3CCCCC3)cc2OC[C@@H](C)N(CCc2ccccc2)C[C@H]1C,AC50,[2],5.41 µM (active)
